Legend:
[1] = test system: M-07e cells; experiment: M-07e cellular assay (SCF-mediated cell proliferation); format: cell-based; conditions: Homo sapiens, 72 hours, CellTiter Glo
Outline: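 Readout came from CellTiter Glo after 72 h of compound treatment in SCF (EC90)-stimulated, pre-starved M-07e cells at 37 °C.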

[2] = target: Recombinant human c-KIT kinase (Homo sapiens (Human), UniProt P10721); experiment: c-KIT kinase chemiluminescence assay (ADP-Glo); format: biochemical; conditions: ATP 50 μM
Sequence of Recombinant human c-KIT kinase (P10721 26-976): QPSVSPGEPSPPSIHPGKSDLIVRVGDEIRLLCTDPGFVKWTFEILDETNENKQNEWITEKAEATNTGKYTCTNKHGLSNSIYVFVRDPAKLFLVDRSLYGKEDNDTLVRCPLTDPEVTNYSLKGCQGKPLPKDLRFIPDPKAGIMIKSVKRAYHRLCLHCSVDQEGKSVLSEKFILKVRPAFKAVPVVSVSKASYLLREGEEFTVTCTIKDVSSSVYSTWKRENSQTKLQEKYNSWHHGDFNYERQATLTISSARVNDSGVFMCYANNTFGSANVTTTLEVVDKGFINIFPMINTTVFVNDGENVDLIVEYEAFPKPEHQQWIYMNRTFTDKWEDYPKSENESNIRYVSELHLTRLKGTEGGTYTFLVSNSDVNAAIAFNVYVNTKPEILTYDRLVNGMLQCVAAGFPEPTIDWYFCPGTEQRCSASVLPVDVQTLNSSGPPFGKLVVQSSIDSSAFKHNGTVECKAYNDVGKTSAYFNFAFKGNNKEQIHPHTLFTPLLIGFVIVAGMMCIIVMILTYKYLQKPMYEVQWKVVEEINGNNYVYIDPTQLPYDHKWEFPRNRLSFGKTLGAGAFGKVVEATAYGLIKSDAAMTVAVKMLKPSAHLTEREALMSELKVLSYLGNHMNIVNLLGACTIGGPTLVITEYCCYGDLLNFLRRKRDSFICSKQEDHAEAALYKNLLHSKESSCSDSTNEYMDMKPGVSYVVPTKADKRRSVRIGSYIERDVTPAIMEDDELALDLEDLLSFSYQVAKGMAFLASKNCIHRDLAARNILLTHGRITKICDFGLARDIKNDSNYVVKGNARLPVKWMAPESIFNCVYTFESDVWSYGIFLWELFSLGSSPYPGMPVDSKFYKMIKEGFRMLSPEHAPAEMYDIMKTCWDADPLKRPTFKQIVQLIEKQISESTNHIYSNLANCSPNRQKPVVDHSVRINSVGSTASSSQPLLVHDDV
Outline: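 ADP formed by c-KIT on polyEY over 2 h at RT (after 30 min enzyme preincubation; Tris pH 7.5, MgCl2, BSA, DTT buffer) was detected by ADP-Glo luminescence. IC50 and Hill slope were fitted to control-normalized activity across compound concentrations.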

CC(=O)N1CC2(CC(c3nc(-c4cnc(C)c(NC(=O)c5cnn6ccc(N7CC8(C7)CC(O)(C(F)F)C8)cc56)c4)no3)C2)C1 [Example 281-73]
EC50 [1]: > 1 µM | IC50 [2]: > 1 µM

CC(=O)N1CCC(c2nc(-c3cnc(C)c(NC(=O)c4cnn5ccc(N6CC7(COC7)C6)cc45)c3)no2)C1 (centres unmarked) [Example 281-74]
EC50 [1]: > 1 µM | IC50 [2]: > 1 µM

CC(=O)N1CCC(c2nc(-c3cnc(C)c(NC(=O)c4cnn5ccc(N6CC7(COC7)C6)cc45)c3)no2)CC1 [Example 281-75]
EC50 [1]: > 1 µM | IC50 [2]: > 1 µM

CC(=O)N1CC2(CC(c3nc(-c4cnc(C)c(NC(=O)c5cnn6ccc(N7CC8(COC8)C7)cc56)c4)no3)C2)C1 [Example 281-76]
EC50 [1]: > 1 µM | IC50 [2]: > 1 µM

COC(=O)N1CC(c2nc(-c3cnc(C)c(NC(=O)c4cnn5ccc(N6CC7(COC7)C6)cc45)c3)no2)C1 [Example 281-77]
EC50 [1]: 0.1 to 1 µM | IC50 [2]: 0.1 to 1 µM

COC(=O)N1CC(c2nc(-c3cnc(C)c(NC(=O)c4cnn5ccc(N6CC7(C6)CC(O)(C(F)F)C7)cc45)c3)no2)C1 [Example 281-78]
EC50 [1]: < 0.1 µM | IC50 [2]: < 0.1 µM

Cc1ncc(-c2noc(C3CN(C(=O)[C@H]4C[C@@H]4F)C3)n2)cc1NC(=O)c1cnn2ccc(N3CC4(C3)CC(O)(C(F)F)C4)cc12 [Example 281-79]
EC50 [1]: > 1 µM | IC50 [2]: > 1 µM

Cc1ncc(-c2noc(C3CN(C(=O)[C@H]4C[C@@H]4F)C3)n2)cc1NC(=O)c1cnn2ccc(N3CC4(COC4)C3)cc12 [Example 281-80]
EC50 [1]: > 1 µM | IC50 [2]: > 1 µM

Cc1ccc(-c2noc(N3CC(F)(F)C3)n2)cc1NC(=O)c1cnn2ccc(N3CC4(COC4)C3)cc12 [Example 281-81]
EC50 [1]: < 0.1 µM | IC50 [2]: 0.1 to 1 µM

Cc1ccc(-c2noc(N3CC(O)(C(F)(F)F)C3)n2)cc1NC(=O)c1cnn2ccc(N3CC4(COC4)C3)cc12 [Example 281-82]
EC50 [1]: < 0.1 µM | IC50 [2]: < 0.1 µM

Cc1ccc(-c2noc(N3CCOCC3)n2)cc1NC(=O)c1cnn2ccc(N3CC4(COC4)C3)cc12 [Example 281-83]
EC50 [1]: < 0.1 µM | IC50 [2]: 0.1 to 1 µM

Cc1ncc(-c2noc(C3CN(C(=O)C4(F)CC4)C3)n2)cc1NC(=O)c1cnn2ccc(N3CC4(C3)CC(O)(C(F)F)C4)cc12 [Example 281-84]
EC50 [1]: 0.1 to 1 µM | IC50 [2]: > 1 µM

Cc1ncc(-c2noc(C3CN(C(=O)C4(F)CC4)C3)n2)cc1NC(=O)c1cnn2ccc(N3CC4(COC4)C3)cc12 [Example 281-85]
EC50 [1]: 0.1 to 1 µM | IC50 [2]: > 1 µM

Cc1ncc(-c2noc(C3CN(C(=O)C4CC4)C3)n2)cc1NC(=O)c1cnn2ccc(N3CC4(C3)CC(O)(C(F)F)C4)cc12 [Example 281-86]
EC50 [1]: > 1 µM | IC50 [2]: > 1 µM

Cc1ncc(-c2noc(C3CN(C(=O)C4CC4)C3)n2)cc1NC(=O)c1cnn2ccc(N3CC4(COC4)C3)cc12 [Example 281-87]
EC50 [1]: > 1 µM | IC50 [2]: > 1 µM

Cc1ncc(-c2noc(C3CN(CC(F)(F)F)C3)n2)cc1NC(=O)c1cnn2ccc(N3CC4(C3)CC(O)(C(F)F)C4)cc12 [Example 281-88]
EC50 [1]: < 0.1 µM | IC50 [2]: 0.1 to 1 µM

Cc1ncc(-c2noc([C@H]3CC3(F)F)n2)cc1NC(=O)c1cnn2ccc(N3CC4(C3)CC(O)(C(F)F)C4)cc12 [Example 281-89]
EC50 [1]: < 0.1 µM | IC50 [2]: 0.1 to 1 µM

Cc1ncc(-c2noc(C3CN(C(=O)OC(C)(C)C)C3)n2)cc1NC(=O)c1cnn2ccc(N3CC4(C3)CC(O)(C(F)F)C4)cc12 [Example 281-90]
EC50 [1]: 0.1 to 1 µM | IC50 [2]: > 1 µM

Cc1ncc(-c2noc(C3CN(C(=O)[C@H]4CC4(F)F)C3)n2)cc1NC(=O)c1cnn2ccc(N3CC4(C3)CC(O)(C(F)F)C4)cc12 [Example 281-91]
EC50 [1]: > 1 µM | IC50 [2]: > 1 µM

Cc1ccc(-c2noc(C3CCN(C(=O)[C@H]4C[C@@H]4F)C3)n2)cc1NC(=O)c1cnn2ccc(N3CC4(COC4)C3)cc12 (some centres unmarked) [Example 281-92]
EC50 [1]: 0.1 to 1 µM | IC50 [2]: 0.1 to 1 µM

Cc1ccc(-c2noc(C3CCN(C(=O)[C@H]4C[C@@H]4F)CC3)n2)cc1NC(=O)c1cnn2ccc(N3CC4(COC4)C3)cc12 [Example 281-93]
EC50 [1]: 0.1 to 1 µM | IC50 [2]: 0.1 to 1 µM

O=C(Nc1cc(-c2noc([C@H]3C[C@@H]3F)n2)ccc1C1CC1)c1cnn2ccc(N3CC4(COC4)C3)cc12 [Example 281-94]
EC50 [1]: > 1 µM | IC50 [2]: > 1 µM

Cc1sc(-c2noc([C@H]3C[C@@H]3F)n2)cc1NC(=O)c1cnn2ccc(N3CC4(C3)CC(O)(C(F)F)C4)cc12 [Example 281-95]
EC50 [1]: < 0.1 µM | IC50 [2]: 0.1 to 1 µM

Cc1ccc(-c2noc(C3CCN(C(=O)[C@H]4C[C@@H]4F)C3)n2)cc1NC(=O)c1cnn2ccc(N3CC4(C3)CC(O)(C(F)F)C4)cc12 (some centres unmarked) [Example 281-96]
EC50 [1]: 0.1 to 1 µM | IC50 [2]: 0.1 to 1 µM

Cc1ccc(-c2noc(C3CCN(C(=O)[C@H]4C[C@@H]4F)CC3)n2)cc1NC(=O)c1cnn2ccc(N3CC4(C3)CC(O)(C(F)F)C4)cc12 [Example 281-97]
EC50 [1]: 0.1 to 1 µM | IC50 [2]: 0.1 to 1 µM

Cc1ccc(-c2noc(N3CC(F)(F)C3)n2)cc1NC(=O)c1cnn2ccc(N3CC4(C3)CC(O)(C(F)F)C4)cc12 [Example 281-98]
EC50 [1]: < 0.1 µM | IC50 [2]: < 0.1 µM

Cc1ccc(-c2noc(N3CC(O)(C(F)(F)F)C3)n2)cc1NC(=O)c1cnn2ccc(N3CC4(C3)CC(O)(C(F)F)C4)cc12 [Example 281-99]
EC50 [1]: < 0.1 µM | IC50 [2]: < 0.1 µM

Cc1ccc(-c2noc(N3CCOCC3)n2)cc1NC(=O)c1cnn2ccc(N3CC4(C3)CC(O)(C(F)F)C4)cc12 [Example 281-100]
EC50 [1]: < 0.1 µM | IC50 [2]: 0.1 to 1 µM

Cc1ncc(-c2noc(C3(F)CN(C(=O)OC(C)(C)C)C3)n2)cc1NC(=O)c1cnn2ccc(N3CC4(C3)CC(O)(C(F)F)C4)cc12 [Example 281-101]
EC50 [1]: 0.1 to 1 µM | IC50 [2]: > 1 µM

Cc1ncc(-c2noc(C3(F)CN(C(=O)C(C)(F)F)C3)n2)cc1NC(=O)c1cnn2ccc(N3CC4(C3)CC(O)(C(F)F)C4)cc12 [Example 281-103]
EC50 [1]: > 1 µM | IC50 [2]: 0.1 to 1 µM

COC(=O)N1CC(F)(c2nc(-c3cnc(C)c(NC(=O)c4cnn5ccc(N6CC7(C6)CC(O)(C(F)F)C7)cc45)c3)no2)C1 [Example 281-104]
EC50 [1]: > 1 µM | IC50 [2]: > 1 µM

Cc1ncc(-c2noc(C3(F)CN(CC(F)F)C3)n2)cc1NC(=O)c1cnn2ccc(N3CC4(C3)CC(O)(C(F)F)C4)cc12 [Example 281-105]
EC50 [1]: 0.1 to 1 µM | IC50 [2]: 0.1 to 1 µM

Cc1ccc(-c2noc(C3CC4(C3)CN(C(=O)[C@H]3C[C@@H]3F)C4)n2)cc1NC(=O)c1cnn2ccc(N3CC4(COC4)C3)cc12 [Example 281-106]
EC50 [1]: 0.1 to 1 µM | IC50 [2]: 0.1 to 1 µM

Cc1ccc(-c2noc(C3CC4(C3)CN(C(=O)[C@H]3C[C@@H]3F)C4)n2)cc1NC(=O)c1cnn2ccc(N3CC4(C3)CC(O)(C(F)F)C4)cc12 [Example 281-107]
EC50 [1]: 0.1 to 1 µM | IC50 [2]: 0.1 to 1 µM

COC(=O)N1CCC(c2nc(-c3ccc(C)c(NC(=O)c4cnn5ccc(N6CC7(C6)CC(O)(C(F)F)C7)cc45)c3)no2)C1 (centres unmarked) [Example 281-108]
EC50 [1]: < 0.1 µM | IC50 [2]: < 0.1 µM

COC(=O)N1CC2(CC(c3nc(-c4ccc(C)c(NC(=O)c5cnn6ccc(N7CC8(C7)CC(O)(C(F)F)C8)cc56)c4)no3)C2)C1 [Example 281-109]
EC50 [1]: 0.1 to 1 µM | IC50 [2]: < 0.1 µM

CCOC(=O)N1CC(c2nc(-c3ccc(C)c(NC(=O)c4cnn5ccc(N6CC7(COC7)C6)cc45)c3)no2)C1 [Example 281-110]
EC50 [1]: < 0.1 µM | IC50 [2]: < 0.1 µM

Cc1sc(-c2noc(C3(F)CN(C(=O)[C@H]4C[C@@H]4F)C3)n2)cc1NC(=O)c1cnn2ccc(N3CC4(C3)CC(O)(C(F)F)C4)cc12 [Example 281-111]
EC50 [1]: 0.1 to 1 µM | IC50 [2]: > 1 µM

Cc1sc(-c2noc([C@H]3C[C@@H](OC(F)(F)F)C3)n2)cc1NC(=O)c1cnn2ccc(N3CC4(C3)CC(O)(C(F)F)C4)cc12 [Example 281-112]
EC50 [1]: 0.1 to 1 µM | IC50 [2]: < 0.1 µM

Cc1sc(-c2noc([C@H]3C[C@@H](OC(F)(F)F)C3)n2)cc1NC(=O)c1cnn2ccc(N3CC4(COC4)C3)cc12 [Example 281-113]
EC50 [1]: 0.1 to 1 µM | IC50 [2]: 0.1 to 1 µM

Cc1sc(-c2noc(C3CN(C(=O)OC(C)(C)C)C3)n2)cc1NC(=O)c1cnn2ccc(N3CC4(COC4)C3)cc12 [Example 281-114]
EC50 [1]: > 1 µM | IC50 [2]: > 1 µM

Cc1sc(-c2noc(C3CN(C(=O)OC(C)(C)C)C3)n2)cc1NC(=O)c1cnn2ccc(N3CC4(C3)CC(O)(C(F)F)C4)cc12 [Example 281-115]
EC50 [1]: > 1 µM | IC50 [2]: > 1 µM

O=C(Nc1cc(-c2noc([C@H]3C[C@@H]3F)n2)ccc1C(F)F)c1cnn2ccc(N3CC4(COC4)C3)cc12 [Example 281-116]
EC50 [1]: 0.1 to 1 µM | IC50 [2]: 0.1 to 1 µM
